Test results from US20240024273A1, “TOPICAL ADMINISTRATION OF 2-(DIETHYLAMINO)ETHYL 2-(4-ISOBUTYLPHENYL)PROPRIONATE FOR TREATMENT OF DISEASES” (TECHFIELDS PHARMA CO., LTD., priority 2020, published 2024).

Assays:
Type in all cases: in vivo, human
[1] = system: osteoarthritis of the knee; experiment: Second Phase 2 study: Subject's pain Assessment Scores (SPA); conditions: Week 12; for Subject's pain Assessment Scores, % of improvement from Oral Ibuprofen / Subject's pain Assessment Scores, % of improvement from Placebo / Subject's pain Assessment Scores, % of improvement from baseline / Subject's pain Assessment Scores, Changes from Baseline (LS Mean) / Subject's pain Assessment Scores, Week 12 (LS Mean) / Subject's pain Assessment Scores, Different from oral ibuprofen (LS Mean) / Subject's pain Assessment Scores, Different from placebo (LS Mean): all subjects
Description: Subjects will record the following information in a Daily Diary starting at Screening: the amount of knee pain in the target knee while walking during the preceding 24 hours (using a 100 mm visual analog scale [VAS]), the times and number of sprays for each administration of study medication, the times when the subject washes his/her knees and/or takes a shower, the number of tablets of rescue medication taken that day and the times taken, the reason for taking the rescue medication (e.g., knee pain, headache, low back pain), any other concomitant medications taken that day, and any AEs occurring that day.

[2] = system: osteoarthritis of the knee; experiment: Second Phase 2 study: Investigator's global assessment of disease status (IGADS); conditions: Week 12; for IGADS: Good and Very good / IGADS: Poor and Very Poor / IGADS: fair: first 130 subjects; for IGADS, Good and Very good / IGADS, Poor and Very Poor / IGADS, fair: all subjects
[3] = system: osteoarthritis of the knee; experiment: Second Phase 2 study: Subject Global Impression of Change (SGIC); conditions: Week 12; for SGIC, Good and Very good / SGIC, Poor and Very Poor / SGIC, fair: all subjects
Source text: 4.9.2. Secondary Efficacy Endpoints: • 1. Change from Baseline in the WOMAC (VAS) pain subscale score for the target knee at 2, 8, and 12 weeks of treatment; • 2. Change from Baseline in the WOMAC (VAS) stiffness subscale scores for the target knee and WOMAC (VAS) functional ability subscale scores at 2, 4, 8, and 12 weeks of treatment; • 3. Change from Baseline in the overall WOMAC (VAS) score at 2, 4, 8, and 12 weeks of treatment; • 4. Subject's global assessment of disease status of the target knee at 2, 4, 8, and 12 weeks of treatment; • 5. Subject's global assessment of response to therapy of the target knee at 2, 4, 8, and 12 weeks of treatment; • 6. Amount of rescue medication (acetaminophen) consumed per day for target knee pain.

[4] = 8.75 mg/knee BID (n = 24), first 130 subjects
[5] = 17.5 mg/knee BID (n = 19), first 130 subjects
[6] = 4.375 mg/knee BID (n = 23), first 130 subjects

CCN(CC)CCOC(=O)C(C)c1ccc(CC(C)C)cc1 (stereo not drawn) [2-(diethylamino)ethyl 2-(4-isobutylphenyl)propionate]
Subject’s pain Assessment Scores, Different from oral ibuprofen (LS Mean) [1, 4]: −3.8 mm | Subject’s pain Assessment Scores, Different from placebo (LS Mean) [1, 4]: −11.4 mm | Subject’s pain Assessment Scores, Week 12 (LS Mean) [1, 4]: 33.2 mm | Subject’s pain Assessment Scores, % of improvement from Oral Ibuprofen [1, 5]: −22.0% | Subject’s pain Assessment Scores, % of improvement from baseline [1, 5]: −58.2% | Subject’s pain Assessment Scores, % of improvement from placebo [1, 5]: −29.0% | Subject’s pain Assessment Scores, Changes from Baseline (LS Mean) [1, 5]: −39.9 mm | Subject’s pain Assessment Scores, Different from oral ibuprofen (LS Mean) [1, 5]: −14.1 mm | Subject’s pain Assessment Scores, Different from placebo (LS Mean) [1, 5]: −21.0 mm | Subject’s pain Assessment Scores, Week 12 (LS Mean) [1, 5]: 28.7 mm | Subject's pain Assessment Scores, % of improvement from Oral Ibuprofen ([1]; 4.375 mg/knee BID, n = 49): 4.9% | Subject's pain Assessment Scores, % of improvement from Placebo ([1]; 4.375 mg/knee BID, n = 49): −3.5% | Subject's pain Assessment Scores, % of improvement from baseline ([1]; 4.375 mg/knee BID, n = 49): −40.5% | Subject's pain Assessment Scores, Changes from Baseline (LS Mean) ([1]; 4.375 mg/knee BID, n = 49): −25.6 mm | Subject's pain Assessment Scores, Week 12 (LS Mean) ([1]; 4.375 mg/knee BID, n = 49): 37.5 mm | Subject's pain Assessment Scores, % of improvement from Oral Ibuprofen ([1]; 8.75 mg/knee BID, n = 54): −3.0% | Subject's pain Assessment Scores, % of improvement from Placebo ([1]; 8.75 mg/knee BID, n = 54): −11.4% | Subject's pain Assessment Scores, % of improvement from baseline ([1]; 8.75 mg/knee BID, n = 54): −48.4% | Subject's pain Assessment Scores, Changes from Baseline (LS Mean) ([1]; 8.75 mg/knee BID, n = 54): −31.4 mm | Subject's pain Assessment Scores, Different from oral ibuprofen (LS Mean) ([1]; 8.75 mg/knee BID, n = 54): −0.8 mm | Subject's pain Assessment Scores, Different from placebo (LS Mean) ([1]; 8.75 mg/knee BID, n = 54): −7.2 mm | Subject's pain Assessment Scores, Week 12 (LS Mean) ([1]; 8.75 mg/knee BID, n = 54): 33.5 mm | Subject's pain Assessment Scores, % of improvement from Oral Ibuprofen ([1]; 17.5 mg/knee BID, n = 52): −8.2% | Subject's pain Assessment Scores, % of improvement from Placebo ([1]; 17.5 mg/knee BID, n = 52): −16.6% | Subject's pain Assessment Scores, % of improvement from baseline ([1]; 17.5 mg/knee BID, n = 52): −53.6% | Subject's pain Assessment Scores, Changes from Baseline (LS Mean) ([1]; 17.5 mg/knee BID, n = 52): −34.6 mm | Subject's pain Assessment Scores, Different from oral ibuprofen (LS Mean) ([1]; 17.5 mg/knee BID, n = 52): −4.1 mm | Subject's pain Assessment Scores, Different from placebo (LS Mean) ([1]; 17.5 mg/knee BID, n = 52): −10.5 mm | Subject's pain Assessment Scores, Week 12 (LS Mean) ([1]; 17.5 mg/knee BID, n = 52): 30.0 mm | IGADS: Good and Very good ([2]; 4.375 mg/knee BID (n = 23)): 43.5% | IGADS: Poor and Very Poor ([2]; 4.375 mg/knee BID (n = 23)): 4.3% | IGADS: fair ([2]; 4.375 mg/knee BID (n = 23)): 53.2% | IGADS: Good and Very good ([2]; 8.75 mg/knee BID (n = 24)): 41.7% | IGADS: Poor and Very Poor ([2]; 8.75 mg/knee BID (n = 24)): 4.2% | IGADS: fair ([2]; 8.75 mg/knee BID (n = 24)): 54.2% | IGADS: Good and Very good ([2]; 17.5 mg/knee BID (n = 19)): 68.4% | IGADS: Poor and Very Poor ([2]; 17.5 mg/knee BID (n = 19)): 0% | IGADS: fair ([2]; 17.5 mg/knee BID (n = 19)): 31.6% | IGADS, Good and Very good ([2]; 4.375 mg/knee BID, n = 49): 40.8% | IGADS, Poor and Very Poor ([2]; 4.375 mg/knee BID, n = 49): 8.2% | IGADS, fair ([2]; 4.375 mg/knee BID, n = 49): 51.0% | IGADS, Good and Very good ([2]; 8.75 mg/knee BID, n = 54): 48.1% | IGADS, Poor and Very Poor ([2]; 8.75 mg/knee BID, n = 54): 7.4% | IGADS, fair ([2]; 8.75 mg/knee BID, n = 54): 44.4% | IGADS, Good and Very good ([2]; 17.5 mg/knee BID, n = 52): 63.5% | IGADS, Poor and Very Poor ([2]; 17.5 mg/knee BID, n = 52): 1.9% | IGADS, fair ([2]; 17.5 mg/knee BID, n = 52): 34.6% | Subject's satisfaction rate (SGIC good and very good) ([3]; 17.5 mg/knee BID, first 130 subjects): 73.7% | SGIC: Good and Very good [3, 6]: 39.1% | SGIC: Poor and Very Poor [3, 6]: 4.3% | SGIC: fair [3, 6]: 56.5% | SGIC: Good and Very good [3, 4]: 37.5% | SGIC: Poor and Very Poor [3, 4]: 16.7% | SGIC: fair [3, 4]: 45.8% | SGIC: Good and Very good [3, 5]: 73.7% | SGIC: Poor and Very Poor [3, 5]: 5.3% | SGIC: fair [3, 5]: 21.1% | SGIC, Good and Very good ([3]; 4.375 mg/knee BID, n = 49): 32.7% | SGIC, Poor and Very Poor ([3]; 4.375 mg/knee BID, n = 49): 10.2% | SGIC, fair ([3]; 4.375 mg/knee BID, n = 49): 57.1% | SGIC, Good and Very good ([3]; 8.75 mg/knee BID, n = 54): 46.3% | SGIC, Poor and Very Poor ([3]; 8.75 mg/knee BID, n = 54): 16.7% | SGIC, fair ([3]; 8.75 mg/knee BID, n = 54): 37.0% | SGIC, Good and Very good ([3]; 17.5 mg/knee BID, n = 52): 61.5% | SGIC, Poor and Very Poor ([3]; 17.5 mg/knee BID, n = 52): 5.8% | SGIC, fair ([3]; 17.5 mg/knee BID, n = 52): 32.7%
